# Tests used:
# [1] = molecular target: T1, MEK1 (Homo sapiens, UniProt Q02750); assay: MEK1 radiometric kinase assay; format: biochemical; details: peptide 100 μM
# T1 construct: purchased Millipore (KinaseProfiler service)
# Description: (§1) A commercial radiometric assay service was used to test the specificity and potency of MMI-0100 ([…]; SEQ ID NO: 1) by measuring its half maximal inhibitory concentrations (IC50). This quantitative assay measures how much MK2 inhibitor (MMI-0100; […] (SEQ ID NO: 1)) is needed to inhibit 50% of a given biological process or component of a process (i.e., an enzyme, cell, or cell receptor). Specifically, in these assays, a positively charged substrate is phosphorylated with a radiolabeled phosphate group from an ATP if the kinase is not inhibited by an inhibitor peptide. The positively charged substrate then is attracted to a negatively charged filter membrane, quantified with a scintillation counter, and compared to a 100% activity control. ATP concentrations within 15 μM of the apparent Km for ATP were chosen since an ATP concentration near the Km may allow for the kinases to have the same relative amount of phosphorylation activity. The individual conditions for each radiometric assay are as follows.
# The reaction was initiated by adding the MgATP. After incubation for 40 minutes at room temperature, 5 μl of this incubation mix was used to initiate the MAPK2 radiometric assay whose reaction condition was the same as the condition for p38 MAPK assay described above.
# (§2) IC50 values for inhibitor peptides were determined using Millipore's IC50 Profiler Express service. […]
# [2] = tested on: P38MAPK; assay: p38 MAPK radiometric kinase assay; format: biochemical; details: peptide 100 μM
# Description: as §1, with “ATP concentrations within 15 μM of the apparent Km for ATP were chosen since an ATP concentration near the Km may allow for the kinases to have the same relative amount of phosphorylation activity. The individual conditions for each radiometric assay are as follows.” left out
# For the p38 MAPK (p38 Mitogen-Activated Protein Kinase) radiometric assay, 5-10 mU of p38 MAPK was incubated with 25 mM Tris pH 7.5, 0.02 mM EGTA, 0.33 mg/mL myelin basic protein (a substrate for p38 MAPK), 10 mM MgAcetate, and 10 μM of [y-^33P-ATP] in the final reaction volume of 25 μl. […] The washed P30 filtermat was dried and its radioactivity was measured by scintillation counter.
# as §2
# [3] = tested on: human saphenous vein (HSV); assay: Human saphenous vein organ culture model of intimal hyperplasia; format: cell-based; details: for average intimal thickness: control 81.6±17.3, pre-culture 43.7±7.8
# Protocol: De-identified, discarded segments of human saphenous vein (HSV) were collected from consented patients undergoing coronary artery or peripheral vascular bypass surgeries. HSV segments were stored in a saline solution until the end of the surgical procedure, at which time they were placed in cold transplant harvest buffer (100 mM potassium lactobionate, 25 mM KH2PO4, 5 mM MgSO4, 30 mM Raffinose, 5 mM Adenosine, 3 mM Glutathione, 1 mM Allopurinol, 50 g/L Hydroxyethyl starch, pH 7.4). The vessels were used within 24 hours of harvest. Using sterile technique, HSV segments were transferred to a 60-mm Petri dish under a sterile hood. The edges (0.5 mm) of each segment were removed with a blade and excess adventitial tissue and fat removed with minimal manipulation. HSV segments were cut into consecutive rings of approximately 1.0 mm in width to be utilized for organ culture or muscle bath experiments. Two rings from each segment were immediately fixed in 10% formalin at 37° C. for 30 min to obtain pre-culture intimal thickening measurements.
# After viability was determined in the muscle bath, additional rings were cut and placed in 8-well chamber slides and maintained in RPMI 1640 medium supplemented with 30% FBS, 1% L-glutamine and 1% penicillin/streptomycin for 14 days at 37° C. in an atmosphere of 5% CO2 in air. The rings were either untreated or treated with 10 μM, 50 μM or 100 μM of MMI-0100 peptide ([…] (SEQ ID NO: 1)). The culture medium with treatments was replaced every 2-3 days.
# After 14 days of organ culture, vein segments were fixed in 0.5 mL of 10% formalin at 37° C. for 30 minutes and embedded in paraffin for sectioning. Beginning at the mid-portion of each ring, 5 transverse sections, spaced 5 μm apart, were cut for each specimen. Sections were then stained with Verhoeff-van Gieson stain. Each section was examined using light microscopy (Carl Zeiss, Thornwood, N.Y.) and 6 radially parallel measurements of intimal and medial thickness were randomly taken from each section ([…]). Intima was defined as tissue on the luminal side of the internal elastic lamina or the chaotic organization of the cells contained within it, whereas the medial layer was contained between the intimal layer and the external elastic lamina. Intimal and medial thickening was measured for each section at 5× magnification with the microscope's computerized image analysis system.
# To this end, rings of human saphenous vein (HSV) were cultured in RPMI medium supplemented with L-glutamine (1%), penicillin/streptomycin (1%), and fetal bovine serum (FBS) (30%) at 5% CO2 and 37° C. for 14 days.
# The effect of MMI-0100 ([…]; SEQ ID NO: 1) on development of intimal hyperplasia was further examined in a follow-up study in which intimal thickness of HSV in an organ culture model was measured in the presence of high serum and different concentrations (10-100 μM) of MMI-0100 ([…]; SEQ ID NO: 1). HSV were cultured for 14 days in 30% serum. All veins were deemed viable at the time of culture by adequate contraction with a phenylephrine challenge in a muscle bath. The average intimal thickness of pre-cultured vein segments was 43.7±7.8 μm. After culture, the average intimal thickness of the control was 81.6±17.3 μm. The average intimal thickness in the presence of 50 μM and 100 μM MMI-0100 ([…]; SEQ ID NO: 1) was 42.7±6.0 μm and 50.4±10.7 μm, respectively, with a significant reduction in intimal thickness (FIGS. 10A and 11).
sequence,measurement,setting,value
YARAAARQARAKALARQLGVAA [MMI-0100],"Percent Activity, MEK1",[1],68%
same,"Percent Activity, P38MAPK",[2],60%
same,mean intimal thickness of HSV in culture,"[3]; 5 μM or 10 μM, 14 days culture, in contrast to r-HSPB1",significantly reduced the mean intimal thickness
same,mean intimal thickness,"[3]; 10 μM, 14 days culture",14 μm
same,average intimal thickness,"[3]; 50 μM, 14 days, 30% serum",42.7±6.0 μm
same,intima:media (I:M) ratio,"[3]; 100 μM, 14 days, 30% serum",greater reduction of the I:M ratio
same,average intimal thickness,"[3]; 100 μM, 14 days, 30% serum",50.4±10.7 μm

# From patent US20110288036A1, “Methods for Treating or Preventing Vascular Graft Failure” (priority 2010, published 2011)
